Data set [1] is described as follows: Solubility of different salt types in biological vehicle (SGF, FeSSIF, FaSSIF), HPLC. It counts as physicochemical. As to conditions: 37° C.; for pH value: supernatant. As for the experimental part: 1 ml of biological vehicle solution (FaSSIF, FeSSIF and SGF) was pipetted respectively into a 1.5-ml glass bottle, and then added to the above-mentioned solution at a gradient of 2 mg until 10 mg or the mixture was saturated. The mixture was prepared in 2 parts in parallel, and then shaken at 37° C. Samples were taken after 4 hours and 24 hours, respectively. The samples taken were centrifuged quickly, and the supernatant was measured for pH value and diluted with a diluent to a suitable multiple, and then the concentration was determined by HPLC.

The nature of data set [2]: Hygroscopicity by dynamic vapor sorption (DVS). Type of data set: physicochemical. The conditions noted are these: 25° C./80% RH. The method, then: In the present invention, the dynamic vapor sorption (DVS) is determined by using the following method: instrument model: SMS DVS Advantage dynamic vapor sorption instrument
Test condition: place 10-15 mg of sample in a DVS sample disk for testing.
The detailed DVS parameters are as follows: […]
balance: dm/dt=0.01%/min (minimum: 10 min; maximum: 180 min) drying: dry for 120 min at 0% RH
RH (%) test step range: 0%-90%-0%
The classification of hygroscopicity evaluation is as follows:
1. Experimental material: SMS DVS Advantage dynamic vapor sorption instrument
2. Experimental method: an appropriate amount of the crystal form B of the compound of formula (II) was placed in a DVS sample disk for DVS analysis.

Another data set relates to liver cancer patients. The conditions noted are these: phase 2 clinical trial, after treatment; cited from earlier work.
Data set [3] is described as follows: High-temperature stability test (60° C., open container). Type of data set: physicochemical.
Data set [4] can be described thus: High-humidity stability test (40° C./75% humidity, open). It counts as physicochemical.
Data set [5] in a line: Approximate solubility in pure water. It counts as physicochemical. The conditions noted are these: thermodynamic from solid, room temperature, 2 mg sample, read-out: Approximate solubility S. The method, then:
2 mg of the sample of each compound was weighed and added to a 1.5-ml glass vial, and a certain volume of pure water was added with a pipette, and ultrasonic solubilization was performed appropriately. The study was conducted at room temperature and tested for solubilization.

For the next data set, the target named is T1, TGF-βRI (Homo sapiens, UniProt P36897).
T1 sequence (P36897 34-503): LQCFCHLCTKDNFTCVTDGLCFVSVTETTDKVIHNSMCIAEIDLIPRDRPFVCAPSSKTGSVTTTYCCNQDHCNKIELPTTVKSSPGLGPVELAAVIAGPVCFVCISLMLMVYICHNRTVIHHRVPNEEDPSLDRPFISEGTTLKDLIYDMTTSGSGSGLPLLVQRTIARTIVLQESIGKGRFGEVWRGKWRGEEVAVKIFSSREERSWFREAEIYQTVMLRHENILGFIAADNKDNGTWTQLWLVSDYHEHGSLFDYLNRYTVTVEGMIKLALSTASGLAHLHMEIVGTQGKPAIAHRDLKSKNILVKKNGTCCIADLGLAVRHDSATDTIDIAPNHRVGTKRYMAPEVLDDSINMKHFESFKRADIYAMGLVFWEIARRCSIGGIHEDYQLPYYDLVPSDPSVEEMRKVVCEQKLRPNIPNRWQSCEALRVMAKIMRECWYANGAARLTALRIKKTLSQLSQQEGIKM
The experiment in a line: TGFβ-RI receptor binding activity screening in vitro (enzyme activity, IC50).

What is called solubility is the concentration that dissolves in the medium under given conditions. As a reminder, the IC50 is the midpoint of a concentration-inhibition curve.

On to `CS(=O)(=O)O.Cc1cccc(-c2nn3c(c2-c2ccc4ncnn4c2/C=C/C(N)=O)CCC3)n1`, for which the Concentration in data set [1] (FaSSIF, 4 hours) is 5159 µg/mL; in data set [1] (FaSSIF, 24 hours), 3704 µg/mL; in data set [1] (FeSSIF, 4 hours), 852 µg/mL; in data set [1] (FeSSIF, 24 hours) it was 925 µg/mL; in data set [1] (SGF, 4 hours) it was 5103 µg/mL; in data set [1] (SGF, 24 hours), 5163 µg/mL. In addition, the State result is “soluble” in data set [1] (FaSSIF, 4 hours); “turbid” in data set [1] (FaSSIF, 24 hours); “turbid” in data set [1] (FeSSIF, 4 hours); “turbid” in data set [1] (FeSSIF, 24 hours); “soluble” in data set [1] (SGF, 4 hours); “soluble” in data set [1] (SGF, 24 hours). In addition, the pH value amounted to 4.16 in data set [1] (FaSSIF, 4 hours); 3.71 in data set [1] (FaSSIF, 24 hours); 4.58 in data set [1] (FeSSIF, 4 hours); 4.60 in data set [1] (FeSSIF, 24 hours); 2.08 in data set [1] (SGF, 4 hours); 2.14 in data set [1] (SGF, 24 hours).
Regarding `Cc1ccc(S(=O)(=O)O)cc1.Cc1cccc(-c2nn3c(c2-c2ccc4ncnn4c2/C=C/C(N)=O)CCC3)n1`, in data set [2], the Classification of hygroscopicity result is on record as “slightly hygroscopic” and the “Hygroscopic weight gain ΔW” value turned out to be 0.673%.
For `Cc1cccc(-c2nn3c(c2-c2ccnc4ccc(C(N)=O)cc24)CCC3)n1` [LY2157299, Galunisertib], the “Patients with a decrease in serum alpha-fetoprotein (AFP) levels by at least 20%” value in the data set on liver cancer patients was “approximately 23%”.
Turning to `Cc1cccc(-c2nn3c(c2-c2ccc4ncnn4c2/C=C/C(N)=O)CCC3)n1`, the Content stood at 99.0% in data set [3] (day 0); 97.5% in data set [3] (day 30); 100.0% in data set [3] (day 60); 99.9% in data set [3] (day 90); 99.0% in data set [4] (day 0); 100.6% in data set [4] (day 30). In addition, the Content was found to be 101.1% in data set [4] (day 60) and 100.4% in data set [4] (day 90). Also, the “Study on crystal form” value in data set [3] (day 0), in data set [3] (day 30), in data set [3] (day 60) and in data set [3] (day 90) was “Crystal form A” throughout. Also, the Total impurities in data set [3] (day 0) was 0.57%; in data set [3] (day 30), 0.56%; in data set [3] (day 60), 0.58%; in data set [3] (day 90) it was 0.55%; in data set [4] (day 0), 0.57%; in data set [4] (day 30), 0.57%. For the same compound, the Total impurities in data set [4] (day 60) and in data set [4] (day 90) was 0.58% each time. The “Stability under high temperature conditions (conclusion)” value in data set [3] (up to 90 days) is reported as “Conclusion: The high-temperature stability test shows that crystal form A of the compound of formula (I) has good stability under high temperature conditions”. The “Stability under high humidity conditions (conclusion)” value in data set [4] (up to 90 days) is given as “Conclusion: The high-humidity stability test shows that the crystal form A of the compound of formula (I) has good stability under high humidity conditions”.
Regarding `Cc1cccc(-c2nn3c(c2-c2ccc4ncnn4c2/C=C/C(N)=O)CCC3)n1` [Sulphate], the Concentration in data set [1] (FaSSIF, 4 hours) came to 4998 µg/mL; in data set [1] (FaSSIF, 24 hours) it was 5000 µg/mL; in data set [1] (FeSSIF, 4 hours), 1530 µg/mL; in data set [1] (FeSSIF, 24 hours) it was 1504 µg/mL; in data set [1] (SGF, 4 hours), 4885 µg/mL; in data set [1] (SGF, 24 hours), 4952 µg/mL. Also, the State result was “soluble” in data set [1] (FaSSIF, 4 hours); “soluble” in data set [1] (FaSSIF, 24 hours); “turbid” in data set [1] (FeSSIF, 4 hours); “turbid” in data set [1] (FeSSIF, 24 hours); “soluble” in data set [1] (SGF, 4 hours); “soluble” in data set [1] (SGF, 24 hours). Also, the pH value stood at 2.44 in data set [1] (FaSSIF, 4 hours); 2.50 in data set [1] (FaSSIF, 24 hours); 4.22 in data set [1] (FeSSIF, 4 hours); 4.21 in data set [1] (FeSSIF, 24 hours); 1.77 in data set [1] (SGF, 4 hours); 1.84 in data set [1] (SGF, 24 hours).
In the case of `Cc1cccc(-c2nn3c(c2-c2ccc4ncnn4c2/C=C/C(N)=O)CCC3)n1` [Compound of formula (I)], the Concentration in data set [1] (FaSSIF, 4 hours) came out at 352 µg/mL; in data set [1] (FaSSIF, 24 hours), 421 µg/mL; in data set [1] (FeSSIF, 4 hours), 565 µg/mL; in data set [1] (FeSSIF, 24 hours) it was 637 µg/mL; in data set [1] (SGF, 4 hours) it was 1997 µg/mL; in data set [1] (SGF, 24 hours) it was 1994 µg/mL. The State result was “turbid” in data set [1] (FaSSIF, 4 hours); “turbid” in data set [1] (FaSSIF, 24 hours); “turbid” in data set [1] (FeSSIF, 4 hours); “turbid” in data set [1] (FeSSIF, 24 hours); “soluble” in data set [1] (SGF, 4 hours); “soluble” in data set [1] (SGF, 24 hours). Moreover, the pH value in data set [1] (FaSSIF, 4 hours) is given as 6.45; in data set [1] (FaSSIF, 24 hours) it was 6.42; in data set [1] (FeSSIF, 4 hours) it was 4.97; in data set [1] (FeSSIF, 24 hours), 4.95; in data set [1] (SGF, 4 hours), 2.37; in data set [1] (SGF, 24 hours), 2.43. Besides, in data set [5], the solubility is < 1.9 mg/mL. For the same compound, the IC50 on TGF-βRI came out at 40 nM.
In the case of `Cc1ccc(S(=O)(=O)O)cc1.Cc1cccc(-c2nn3c(c2-c2ccc4ncnn4c2/C=C/C(N)=O)CCC3)n1` [Compound of formula (II)], the Concentration in data set [1] (FaSSIF, 4 hours) came to 10150 µg/mL; in data set [1] (FaSSIF, 24 hours) it was 10720 µg/mL; in data set [1] (FeSSIF, 4 hours) it was 10840 µg/mL; in data set [1] (FeSSIF, 24 hours), 10580 µg/mL; in data set [1] (SGF, 4 hours) it was 1610 µg/mL; in data set [1] (SGF, 24 hours) it was 1470 µg/mL. Moreover, the State entry in data set [1] (FaSSIF, 4 hours) is “clear”; in data set [1] (FaSSIF, 24 hours), “clear”; in data set [1] (FeSSIF, 4 hours), “clear”; in data set [1] (FeSSIF, 24 hours), “clear”; in data set [1] (SGF, 4 hours), “Suspension”; in data set [1] (SGF, 24 hours), “Suspension”. The pH value in data set [1] (FaSSIF, 4 hours) is 3.15; in data set [1] (FaSSIF, 24 hours), 3.13; in data set [1] (FeSSIF, 4 hours), 1.89; in data set [1] (FeSSIF, 24 hours), 1.87; in data set [1] (SGF, 4 hours), 3.45; in data set [1] (SGF, 24 hours), 4.26. Moreover, the solubility in data set [5] lay in the range of 49 to 98 mg/mL.
For `Cc1cccc(-c2nn3c(c2-c2ccc4ncnn4c2/C=C/C(N)=O)CCC3)n1.Cl` [Hydrochloride], the Concentration in data set [1] (FaSSIF, 4 hours) was determined as 4378 µg/mL; in data set [1] (FaSSIF, 24 hours), 4195 µg/mL; in data set [1] (FeSSIF, 4 hours), 1028 µg/mL; in data set [1] (FeSSIF, 24 hours), 1065 µg/mL; in data set [1] (SGF, 4 hours), 4343 µg/mL; in data set [1] (SGF, 24 hours), 4427 µg/mL. Further, the State entry is given as “soluble” in data set [1] (FaSSIF, 4 hours); “soluble” in data set [1] (FaSSIF, 24 hours); “turbid” in data set [1] (FeSSIF, 4 hours); “turbid” in data set [1] (FeSSIF, 24 hours); “soluble” in data set [1] (SGF, 4 hours); “soluble” in data set [1] (SGF, 24 hours). Moreover, the pH value in data set [1] (FaSSIF, 4 hours) is on record as 3.96; in data set [1] (FaSSIF, 24 hours), 3.97; in data set [1] (FeSSIF, 4 hours) it was 4.52; in data set [1] (FeSSIF, 24 hours) it was 4.52; in data set [1] (SGF, 4 hours), 2.04; in data set [1] (SGF, 24 hours), 2.05.

The values above are taken from patent publication US11236112B2 (GENFLEET THERAPEUTICS (SHANGHAI) INC., priority 2017, dated 2022).
